Holding throughout (type): cell-based
In experiment [1] the test system is WiDr cells (colon cancer cells; wildtype SF3B1). In words: Cell viability assay (CellTiter-Glo, 72 hr), WiDr cells. The conditions noted are these: Homo sapiens; WiDr cells (wildtype SF3B1); read-out: WiDr GI50. The procedure: (§1) Cells (WiDr and Panc05.04 obtained from ATCC) were seeded in 96-well plates, with 2000 cells/100 μL/well, and incubated overnight. Spent media was removed, and fresh media containing 9 different concentrations of compound (100 μL/well) were added, with DMSO concentration from compound stock solution adjusted to be 0.1%. Each compound treatment was done in duplicate or triplicate at each concentration.
(§2) Another plate with cells seeded was dedicated as a time zero (Tz) plate, to which was added 0.1% DMSO in media (100 μL/well) followed by CellTiter-Glo® reagent (Promega Corporation, Madison, Wisconsin) (50 μL/well) for ATP measurement as a surrogate of cell viability. Average value from measurement of multiple wells of this plate is used as Tz. Compound-treated plates were incubated for 72 hr at 37° C. Then, CellTiter-Glo® reagent (50 μL/well) was added and ATP was measured. Average value from measurement of the duplicate or triplicate compound-treated wells is used as Ti, and seeded plates with medium having 0.1% DMSO without compound is used as control growth (C).
(§3) Percentage growth inhibition/Percentage viability was calculated as:
(§4) [(Ti−Tz)/(C−Tz)]×100 for concentrations for which Ti>/=Tz
(§5) [(Ti−Tz)/Tz]×100 for concentrations for which Ti<Tz.
(§6) *time zero (Tz), control growth (C), and test growth in the presence of compound (Ti) Percentage growth inhibition/Percentage viability are plotted versus compound concentration to determine Emax.
Emax refers to the maximum achievable response to a compound in a tested dose range, with a negative value indicating cellular lethality. A larger negative Emax value indicates greater cellular lethality for a particular compound. […]
(In general: ATP-based viability assays read luminescence as a measure of living cells.)

Experiment [2] has as its system Panc 05.04 cells (pancreatic cancer cells; Q699H and K700E mutations in SF3B1). The experiment is described as follows: Cell viability assay (CellTiter-Glo, 72 hr), Panc 05.04 cells. To be noted: Panc 05.04 cells (mutant SF3B1); for Emax: maximum achievable response in tested dose range, negative value = cellular lethality, read-out: Panc 05.04 (mt SF3B1 cells) Emax (%); for GI50: read-out: Panc 05.04 (mt SF3B1 cells), GI50. As for the experimental part: as §1, §2, §3, §4, §5, §6
(§7) Emax refers to the maximum achievable response to a compound in a tested dose range, with a negative value indicating cellular lethality. A larger negative Emax value indicates greater cellular lethality for a particular compound.

Experiment [3] relates to WiDr-R cells (colon cancer cells; chemically-induced SF3B1 R1074H mutant). The experiment is described as follows: Cell viability assay (CellTiter-Glo, 72 hr), resistant WiDr-R cells (counter-screen). The conditions noted are these: WiDr-R cells (SF3B1 R1074H mutation, resistant); read-out: WiDr-R GI50. The procedure:
as §1, §2, §3, §4, §5, §6, §7
The counter-screening of compounds in this viability assay with a “resistant” WiDr-R cell line may indicate whether these compounds have off-target effect(s).

As a reminder, the GI50 is the concentration at which growth is held to half of that of the control. Consider `C/C(=C\C=C\[C@@H](C)c1ccccn1)[C@H]1OC(=O)C[C@H](O)CC[C@@](C)(O)[C@@H](OC(=O)N2CC3CCC(C2)N3C2CCCCCC2)/C=C/[C@@H]1C`, for which the GI50 in experiment [1] was 0.052 µM; in experiment [2] it was 0.065 µM; in experiment [3], over 1 µM. Besides, the Emax in experiment [2] is -95.7%.

Turning to `C/C(=C\C=C\[C@@H](C)COC(=O)N1CC[C@H](F)C1)[C@H]1OC(=O)C[C@H](O)CC[C@@](C)(O)[C@@H](OC(=O)N2CCN(C)CC2)/C=C/[C@@H]1C`, the GI50 in experiment [1] was 0.00284 µM; in experiment [2] it was 0.00486 µM; in experiment [3] it was over 1 µM. Moreover, in experiment [2], the Emax is -90.2%.

Turning to `C/C(=C\C=C\C(C)c1ccnc(N(C)C)n1)[C@H]1OC(=O)C[C@H](O)CC[C@@](C)(O)[C@@H](OC(=O)N2CCN(C)CC2)/C=C/[C@@H]1C` (some centres unmarked), the GI50 in experiment [1] was 0.252 µM; in experiment [2], 1.29 µM; in experiment [3] it was over 1 µM. Besides, in experiment [2], the Emax was determined as 6.97%.

On to `CC(=O)O[C@H]1/C=C/[C@H](C)[C@@H](/C(C)=C/C=C/C(C)(O)c2cccs2)OC(=O)C[C@H](O)CC[C@@]1(C)O` (some centres unmarked), for which the figures for the GI50 in experiment [1], in experiment [2] and in experiment [3] were 0.473 µM, 3.79 µM and over 10 µM, respectively. In experiment [2], the Emax was 32.8%.

As for `C/C(=C\C=C\C(C)c1ncccn1)[C@H]1OC(=O)CCCCC[C@@H](OC(=O)N2CCN(C)CC2)/C=C/[C@@H]1C` (some centres unmarked), the 50% growth inhibitory concentration (GI50) in experiment [1] was 0.0457 µM; in experiment [2], 0.0404 µM; in experiment [3] it was over 1 µM. The Emax in experiment [2] is -72.6%.

As to `CC(=O)O[C@H]1/C=C/[C@H](C)[C@@H](/C(C)=C/C=C/C(C)(O)CCc2ccccc2)OC(=O)C[C@H](O)CC[C@@]1(C)O` (some centres unmarked), the GI50 in experiment [1] was 0.194 µM; in experiment [2] it was 0.354 µM; in experiment [3], over 10 µM. For the same compound, in experiment [2], the Emax was -41.5%.

Turning to `C/C(=C\C=C\[C@@H](C)COC(=O)N1CCC[C@H]1CO)[C@H]1OC(=O)C[C@H](O)CC[C@H](C)[C@@H](OC(=O)N2CCN(C)CC2)/C=C/[C@@H]1C`, the GI50 in experiment [1] was 0.00266 µM; in experiment [2], 0.00436 µM; in experiment [3] it was over 1 µM. Besides, the Emax in experiment [2] was -79%.

Consider `C/C(=C\C=C\[C@@H](C)COC(=O)N1CCC[C@H]1CF)[C@H]1OC(=O)C[C@H](O)CC[C@H](C)[C@@H](OC(=O)N2CCN(C)CC2)/C=C/[C@@H]1C`, for which the GI50 was 0.0022 µM in experiment [1], 0.000339 µM in experiment [2] and over 1 µM in experiment [3]. Also, the Emax in experiment [2] is -79.1%.

With `C/C(=C\C=C\[C@@H](C)COC(=O)N1CC[C@@H](NC(=O)OC(C)(C)C)C1)[C@H]1OC(=O)C[C@H](O)CC[C@@](C)(O)[C@@H](OC(=O)N2CCN(C3CCCCCC3)CC2)/C=C/[C@@H]1C`, the GI50 is 0.028 µM in experiment [1], 0.0594 µM in experiment [2] and over 1 µM in experiment [3]. Moreover, in experiment [2], the Emax is -59.6%.

Turning to `C/C(=C\C=C\Cc1ccccn1)[C@H]1OC(=O)C[C@H](O)CC[C@@](C)(O)[C@@H](OC(=O)N2CCN(C3CCCCCC3)CC2)/C=C/[C@@H]1C`, the figures for the GI50 in experiment [1], in experiment [2] and in experiment [3] were 0.148 µM, over 4 µM and over 1 µM, respectively. Moreover, the Emax in experiment [2] was found to be 63.5%.

For `CC(=O)O[C@H]1/C=C/[C@H](C)[C@@H](/C(C)=C/C=C/[C@](C)(O)CCc2ccccc2)OC(=O)C[C@H](O)CC[C@@]1(C)O`, the GI50 was 0.167 µM in experiment [1], 0.314 µM in experiment [2] and over 10 µM in experiment [3]. Further, the Emax in experiment [2] was -55.4%.

Consider `C/C(=C\C=C\[C@@H](C)COC(=O)N1CCC[C@H]1C)[C@H]1OC(=O)CCCCC[C@@H](OC(=O)N2CCN(C)CC2)/C=C/[C@@H]1C`, for which the concentration for 50% growth inhibition (GI50) in experiment [1] was found to be 0.00344 µM; in experiment [2] it was 0.00773 µM; in experiment [3], 0.681 µM. Besides, the Emax in experiment [2] is -65.3%.

`C/C(=C\C=C\[C@@H](C)COC(=O)N1[C@H](C)CC[C@H]1C)[C@H]1OC(=O)C[C@H](O)CC[C@@](C)(O)[C@@H](OC(=O)N2CCN(C3CCCCCC3)CC2)/C=C/[C@@H]1C`: the GI50 in experiment [1] turned out to be 0.00239 µM; in experiment [2], 0.00452 µM; in experiment [3] it was 0.0148 µM. In addition, in experiment [2], the Emax is -68.9%.

Take `C/C(=C\C=C\[C@@H](C)COC(=O)N1CC[C@H](C)C1)[C@H]1OC(=O)C[C@H](O)CC[C@@](C)(O)[C@@H](OC(=O)N2CCN(C3CCCCCC3)CC2)/C=C/[C@@H]1C`: the GI50 in experiment [1] was 0.0062 µM; in experiment [2], 0.00259 µM; in experiment [3], over 1 µM. Moreover, the Emax in experiment [2] was -93.6%.

As for `C/C(=C\C=C\[C@@H](C)COC(=O)N1CC[C@@H](Oc2nnnn2-c2ccccc2)C1)[C@H]1OC(=O)CCCC[C@@](C)(O)[C@@H](OC(=O)N2CCN(C)CC2)/C=C/[C@@H]1C`, the values for the 50% growth inhibitory concentration (GI50) in experiment [1], in experiment [2] and in experiment [3] were 0.0316 µM, 0.0373 µM and over 1 µM, respectively. In experiment [2], the Emax was -94.9%.

As to `C/C(=C\C=C\[C@@H](C)COC(=O)N1C[C@H](O)[C@@H](O)C1)[C@H]1OC(=O)C[C@H](O)CC[C@@](C)(O)[C@@H](OC(=O)N2CCN(C3CCCCCC3)CC2)/C=C/[C@@H]1C`, the GI50 is 0.294 µM in experiment [1], 0.0746 µM in experiment [2] and over 1 µM in experiment [3]. Besides, the Emax in experiment [2] was -95.4%.

With `C/C(=C\C=C\[C@@H](C)COC(=O)N1CC2CC2C1)[C@H]1OC(=O)C[C@H](O)CC[C@@](C)(O)[C@@H](OC(=O)N2CCN(C3CCCCCC3)CC2)/C=C/[C@@H]1C` (some centres unmarked), the GI50 in experiment [1] is 0.00828 µM; in experiment [2], 0.0186 µM; in experiment [3], over 1 µM. In experiment [2], the Emax was -84.2%.

`CC(=O)O[C@H]1/C=C/[C@H](C)[C@@H](/C(C)=C/C=C/Cc2ccncc2)OC(=O)C[C@H](O)CC[C@@]1(C)O`: the GI50 is 0.61 µM in experiment [1], over 6.4 µM in experiment [2] and over 10 µM in experiment [3]. For the same compound, the Emax in experiment [2] was found to be 76.5%.

Consider `C/C(=C\C=C\[C@@H](C)c1ccccn1)[C@H]1OC(=O)CCCC[C@@](C)(O)[C@@H](OC(=O)N2CCN(C)CC2)/C=C/[C@@H]1C`, for which the GI50 in experiment [1] is 0.0316 µM; in experiment [2], 0.0339 µM; in experiment [3] it was over 1 µM. Besides, the Emax in experiment [2] was -75.7%.

With `COCCN(C)C(=O)OC[C@H](C)/C=C/C=C(\C)[C@H]1OC(=O)C[C@H](O)CC[C@@](C)(O)[C@@H](OC(C)=O)/C=C/[C@@H]1C`, the results for the GI50 in experiment [1], in experiment [2] and in experiment [3] were 0.247 µM, 0.0643 µM and over 1 µM, respectively. For the same compound, the Emax in experiment [2] was -96.8%.

With `C/C(=C\C=C\[C@@H](C)c1ccccn1)[C@H]1OC(=O)CCCCC[C@@H](OC(=O)N2CCN(C3CCCCCC3)CC2)/C=C/[C@@H]1C`, the figures for the 50% growth inhibitory concentration (GI50) in experiment [1], in experiment [2] and in experiment [3] were 0.258 µM, 0.883 µM and 3.82 µM, respectively. The Emax in experiment [2] is -40.6%.

For the compound `C/C(=C\C=C\[C@@H](C)COC(=O)N1CCCC1(C)C)[C@H]1OC(=O)C[C@H](O)CC[C@@](C)(O)[C@@H](OC(=O)N2CCN(C3CCCCCC3)CC2)/C=C/[C@@H]1C`, the GI50 in experiment [1] is 0.0289 µM; in experiment [2], 0.0104 µM; in experiment [3], over 1 µM. In experiment [2], the Emax is -93%.

As for `C/C(=C\C=C\[C@@H](C)COC(=O)N1CCCC1)[C@H]1OC(=O)C[C@@H](O)CC[C@@](C)(O)[C@@H](OC(=O)N2CCN(C)CC2)/C=C/[C@@H]1C`, the GI50 in experiment [1] was 0.025 µM; in experiment [2], 0.0123 µM; in experiment [3] it was over 1 µM. In addition, in experiment [2], the Emax was -95.4%.

Regarding `C/C(=C\C=C\C(C)c1ccnc(N2CCCC2)n1)[C@H]1OC(=O)C[C@H](O)CC[C@@](C)(O)[C@@H](OC(=O)N2CCN(C3CCCCCC3)CC2)/C=C/[C@@H]1C` (some centres unmarked), the values for the GI50 in experiment [1], in experiment [2] and in experiment [3] were 0.023 µM, 0.147 µM and 4.31 µM, respectively. For the same compound, in experiment [2], the Emax is -96.6%.

Turning to `C/C(=C\C=C\[C@@H](C)COC(=O)N1CCc2ccccc21)[C@H]1OC(=O)C[C@H](O)CC[C@@](C)(O)[C@@H](OC(=O)N2CCN(C)CC2)/C=C/[C@@H]1C`, the GI50 was 0.0198 µM in experiment [1], 0.0167 µM in experiment [2] and over 1 µM in experiment [3]. Also, the Emax in experiment [2] was -97%.

As for `C/C(=C\C=C\[C@@H](C)COC(=O)N1CCC[C@H]1CF)[C@H]1OC(=O)C[C@H](O)CC[C@H](C)[C@@H](OC(=O)N2CCN(C3CCCCCC3)CC2)/C=C/[C@@H]1C`, the GI50 in experiment [1] is 0.00505 µM; in experiment [2], 0.00676 µM; in experiment [3], over 1 µM. In experiment [2], the Emax is -77.7%.

The record behind these values is US11926619B2, “Certain pladienolide compounds and methods of use” (EISAI R&D MANAGEMENT CO., LTD., priority 2018, dated 2024).
